Experimental data taken from PubChem BioAssay (NCI).
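In this assay, cells in 96-well plates receive the compound at five concentrations for 48 hours. Endpoints are linearly interpolated between the surrounding concentrations. GI50: concentration for 50% inhibition of growth. TGI is the concentration that stops growth completely.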

What was measured:
Test in all cases: growth of human tumour cells (NCI), 48 h
[1] = tested on: SN12C renal
[2] = tested on: SR leukemia
[3] = tested on: COLO 205 colon
[4] = tested on: HT29 colon
[5] = tested on: M14 melanoma
[6] = tested on: T-47D breast
[7] = tested on: SNB-19 CNS
[8] = tested on: DLD-1 colon
[9] = tested on: HOP-18 NSCLC
[10] = tested on: MCF7 breast
[11] = tested on: RPMI-8226 leukemia
[12] = tested on: ACHN renal
[13] = tested on: A498 renal
[14] = tested on: RXF-631 renal
[15] = tested on: HOP-62 NSCLC
[16] = tested on: CCRF-CEM leukemia
[17] = tested on: NCI/ADR-RES ovarian
[18] = tested on: UO-31 renal
[19] = tested on: MOLT-4 leukemia
[20] = tested on: HCC-2998 colon
[21] = tested on: NCI-H226 lung
[22] = tested on: M19-MEL melanoma
[23] = tested on: TK-10 renal
[24] = tested on: SK-MEL-5 melanoma
[25] = tested on: MALME-3M melanoma
[26] = tested on: LOX IMVI melanoma
[27] = tested on: KM12 colon
[28] = tested on: SK-OV-3 ovarian
[29] = tested on: DMS 114 small cell lung
[30] = tested on: OVCAR-5 ovarian
[31] = tested on: 786-0 renal
[32] = tested on: SF-295 CNS
[33] = tested on: HS 578T breast
[34] = tested on: OVCAR-4 ovarian
[35] = tested on: XF 498 CNS
[36] = tested on: SW-620 colon
[37] = tested on: SNB-75 CNS
[38] = tested on: RXF 393 renal
[39] = tested on: UACC-62 melanoma
[40] = tested on: UACC-257 melanoma
[41] = tested on: SK-MEL-2 melanoma
[42] = tested on: HCT-15 colon
[43] = tested on: SF-539 CNS
[44] = tested on: DU-145 prostate
[45] = tested on: SF-268 CNS
[46] = tested on: PC-3 prostate
[47] = tested on: A549 NSCLC
[48] = tested on: BT-549 breast
[49] = tested on: NCI-H522 lung
[50] = tested on: IGROV1 ovarian
[51] = tested on: DMS 273 small cell lung
[52] = tested on: MDA-MB-231 breast
[53] = tested on: NCI-H460 lung
[54] = tested on: HCT-116 colon
[55] = tested on: LXFL 529 NSCLC
[56] = tested on: MDA-N
[57] = tested on: MDA-MB-435
[58] = tested on: NCI-H23 lung
[59] = tested on: OVCAR-3 ovarian
[60] = tested on: SNB-78 CNS
[61] = tested on: SK-MEL-28 melanoma
[62] = tested on: EKVX NSCLC
[63] = tested on: U251 CNS
[64] = tested on: HOP-92 NSCLC
[65] = tested on: K-562 leukemia
[66] = tested on: KM20L2 colon
[67] = tested on: CAKI-1 renal
[68] = tested on: OVCAR-8 ovarian

With `CC(=O)/C(C)=N/NC(=O)c1ccccc1O` the GI50 [1] was over 100 µM, the TGI [1] was over 100 µM and the TGI [2] was over 100 µM. The GI50 [3] was over 100 µM, the TGI [3] was over 100 µM and the GI50 [4] was over 100 µM. It also gave a TGI [4] of over 100 µM, a GI50 [5] of over 100 µM and a TGI [5] of over 100 µM. The TGI [6] was over 100 µM, the GI50 [7] was over 100 µM and the TGI [7] was over 100 µM. It also gave a TGI [8] of over 10 µM, a TGI [9] of over 10 µM and a TGI [10] of over 100 µM. It also gave a GI50 [11] of over 100 µM, a TGI [11] of over 100 µM and a GI50 [12] of over 100 µM. It also gave a TGI [12] of over 100 µM, a GI50 [13] of over 10 µM and a TGI [13] of over 100 µM. It also gave a TGI [14] of over 10 µM, a GI50 [15] of over 100 µM and a TGI [15] of over 100 µM. It also gave a TGI [16] of over 100 µM, a TGI [17] of over 100 µM and a TGI [18] of over 10 µM. The TGI [19] was over 100 µM, the GI50 [20] was over 100 µM and the TGI [20] was over 100 µM. It also gave a GI50 [21] of over 100 µM, a TGI [21] of over 100 µM and a TGI [22] of over 10 µM. For the same compound, the GI50 [23] was over 100 µM, the TGI [23] was over 100 µM and the TGI [24] was over 100 µM. It also gave a GI50 [25] of over 100 µM, a TGI [25] of over 100 µM and a GI50 [26] of over 100 µM. For the same compound, the TGI [26] was over 100 µM, the GI50 [27] was over 100 µM and the TGI [27] was over 100 µM. It also gave a GI50 [28] of over 100 µM, a TGI [28] of over 100 µM and a TGI [29] of over 10 µM. It also gave a GI50 [30] of over 100 µM, a TGI [30] of over 100 µM and a GI50 [31] of over 100 µM. For the same compound, the TGI [31] was over 100 µM, the GI50 [32] was over 100 µM and the TGI [32] was over 100 µM. It also gave a TGI [33] of over 100 µM, a GI50 [34] of over 100 µM and a TGI [34] of over 100 µM. It also gave a TGI [35] of over 10 µM, a GI50 [36] of over 100 µM and a TGI [36] of over 100 µM. It also gave a GI50 [37] of over 100 µM, a TGI [37] of over 100 µM and a GI50 [38] of over 100 µM. The TGI [38] was over 100 µM, the GI50 [39] was over 10 µM and the TGI [39] was over 100 µM. For the same compound, the GI50 [40] was over 100 µM, the TGI [40] was over 100 µM and the GI50 [41] was over 100 µM. The TGI [41] was over 100 µM, the GI50 [42] was over 10 µM and the TGI [42] was over 100 µM. It also gave a TGI [43] of over 10 µM, a TGI [44] of over 100 µM and a GI50 [45] of over 100 µM. The TGI [45] was over 100 µM, the TGI [46] was over 100 µM and the GI50 [47] was over 100 µM. It also gave a TGI [47] of over 100 µM, a TGI [48] of over 100 µM and a TGI [49] of over 100 µM. The GI50 [50] was over 10 µM, the TGI [50] was over 100 µM and the TGI [51] was over 10 µM. The TGI [52] was over 100 µM, the GI50 [53] was over 100 µM and the TGI [53] was over 100 µM. The GI50 [54] was over 100 µM, the TGI [54] was over 100 µM and the TGI [55] was over 10 µM. For the same compound, the TGI [56] was over 100 µM, the TGI [57] was over 100 µM and the GI50 [58] was over 100 µM. For the same compound, the TGI [58] was over 100 µM, the GI50 [59] was over 10 µM and the TGI [59] was over 100 µM. It also gave a TGI [60] of over 10 µM, a GI50 [61] of over 100 µM and a TGI [61] of over 100 µM. For the same compound, the GI50 [62] was over 100 µM, the TGI [62] was over 100 µM and the GI50 [63] was over 100 µM. For the same compound, the TGI [63] was over 100 µM, the TGI [64] was over 10 µM and the TGI [65] was over 100 µM. For the same compound, the TGI [66] was over 10 µM, the GI50 [67] was over 100 µM and the TGI [67] was over 100 µM. The GI50 [68] was over 100 µM and the TGI [68] was over 100 µM.
